Measured values taken from ChEMBL document CHEMBL1201862, “PubChem BioAssay data set” (2004).
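Following 48 hours of exposure in 96-well plates, responses at five concentrations were used to interpolate endpoints linearly. Here, GI50 denotes the concentration required for 50% inhibition of growth.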 Activity calls are given as the source filed them. Rule as the data show it: active = GI50 up to about 1.1 µM and inactive = higher.

What was measured:
Assay in all cases: NCI-60 cell line screen, 48 h
[1] = system: NCI/ADR-RES
[2] = system: MDA-MB-231
[3] = system: NCI-H226
[4] = system: A498
[5] = system: PC-3
[6] = system: UACC-257
[7] = system: HCC 2998
[8] = system: BT-549
[9] = system: OVCAR-5
[10] = system: DU-145
[11] = system: MDA-N
[12] = system: RPMI-8226
[13] = system: SK-MEL-2
[14] = system: KM12
[15] = system: 786-0
[16] = system: CCRF-CEM
[17] = system: CAKI-1
[18] = system: NCI-H522
[19] = system: Malme-3M
[20] = system: Hs-578T

Measured: GI50

CS(=O)(=O)c1nc(-c2cc3c(c(S(C)(=O)=O)n2)CCC3)cc2c1CCC2
inactive: [1] > 100 µM | [2] 24.4 µM | [3] > 100 µM | [4] > 100 µM | [5] > 100 µM | [6] > 100 µM | [7] > 100 µM | [8] > 100 µM | [9] > 100 µM | [10] > 100 µM | [11] > 100 µM | [12] > 100 µM | [13] > 100 µM | [14] > 100 µM | [15] 82.6 µM | [16] > 100 µM | [17] > 100 µM | [18] > 100 µM

Oc1ccc(-c2nc(-c3cccnc3)c(-c3ccc(F)cc3)[nH]2)cc1
inactive: [19] 17.5 µM | [1] 19 µM | [20] 20.9 µM | [2] 18.9 µM | [3] 21.5 µM | [5] 16.7 µM | [6] 17.6 µM | [7] 19.8 µM | [8] 16.6 µM | [9] 30.2 µM | [10] 24 µM | [11] 19 µM | [12] 10.2 µM | [13] 17.9 µM | [14] 18.2 µM | [15] 22.9 µM | [16] 10.7 µM | [17] 28.6 µM

COc1cccc2c1OC1c3ccccc3OCC1C2 (centres undefined)
inactive: [19] > 100 µM | [1] 34.6 µM | [2] > 100 µM | [3] > 100 µM | [4] > 100 µM | [5] 82.6 µM | [6] 83.6 µM | [7] > 100 µM | [8] 62.2 µM | [9] > 100 µM | [10] > 100 µM | [11] > 100 µM | [12] > 100 µM | [13] > 100 µM | [14] > 100 µM | [15] > 100 µM | [16] 42.8 µM | [17] > 100 µM | [18] > 10 µM

CC(=O)ONC(C(=O)C(C)(C)C)C(=O)C(C)(C)C
inactive: [19] > 100 µM | [1] > 100 µM | [20] > 100 µM | [2] > 100 µM | [3] > 100 µM | [4] > 100 µM | [5] > 100 µM | [6] > 100 µM | [7] > 100 µM | [9] > 100 µM | [10] > 100 µM | [11] > 100 µM | [12] > 100 µM | [13] > 100 µM | [14] > 100 µM | [15] > 100 µM | [16] > 100 µM | [17] > 100 µM | [18] > 100 µM

CC1=CC(O)CC(C)(C)C1/C=C/C(C)=C/C=C/C(C)=C/C=C/C=C(C)/C=C/C=C(C)/C=C/C1=C(C)CC(O)CC1(C)C (centres undefined)
inactive: [19] 15.6 µM | [1] 24.5 µM | [20] 80.5 µM | [2] 13.5 µM | [3] 21.4 µM | [5] 23.2 µM | [6] 24.9 µM | [7] 83.9 µM | [8] 17.8 µM | [9] 34.8 µM | [10] 7.43 µM | [11] 18.7 µM | [12] 28.2 µM | [13] 25 µM | [14] 38.6 µM | [15] 19.1 µM | [16] 26.2 µM | [17] 23.2 µM | [18] 15.2 µM

CCOc1ccccc1NC(=O)C(=O)C(/C(=N/N)C(=O)OC)c1nc2ccc([N+](=O)[O-])cc2nc1O (centres undefined)
inactive: [19] > 100 µM | [1] > 100 µM | [20] > 100 µM | [2] > 100 µM | [3] > 100 µM | [4] > 100 µM | [5] > 100 µM | [6] > 100 µM | [7] > 100 µM | [8] > 100 µM | [9] > 100 µM | [11] > 100 µM | [12] > 100 µM | [13] > 100 µM | [14] > 100 µM | [15] > 100 µM | [16] > 100 µM | [17] > 100 µM | [18] 58.3 µM

O=c1[nH]nc(Nc2ccc(Cl)cc2)c2nnn(-c3ccc([N+](=O)[O-])cc3)c12
inactive: [19] 26.1 µM | [1] 23.1 µM | [2] 42.4 µM | [3] 42.1 µM | [5] 18.3 µM | [6] 34.8 µM | [7] 15.2 µM | [8] 19.2 µM | [9] > 100 µM | [10] 12.1 µM | [12] 10.7 µM | [13] 24.2 µM | [14] 26.4 µM | [15] 17.1 µM | [16] 7.98 µM | [17] 39.5 µM | [18] 4.47 µM

CCCCCCCC1(N=[N+]=[N-])C(=O)c2ccccc2N(C)C1=O (centres undefined)
inactive: [19] > 100 µM | [1] 35.6 µM | [20] > 100 µM | [2] > 100 µM | [3] > 100 µM | [4] > 100 µM | [5] > 100 µM | [6] 57.8 µM | [7] > 100 µM | [8] 88.5 µM | [9] > 100 µM | [10] > 100 µM | [12] 56.1 µM | [14] > 100 µM | [15] > 100 µM | [16] 7.55 µM | [17] > 100 µM | [18] 64.9 µM

COC(=O)c1ccc(/C=C2\Oc3cc(O)ccc3C2=O)cc1
inactive: [1] > 100 µM | [20] 52.4 µM | [2] 65.9 µM | [3] 55.3 µM | [5] 91.4 µM | [6] > 100 µM | [7] > 100 µM | [8] 39.8 µM | [10] > 100 µM | [11] 67.3 µM | [12] 29.4 µM | [14] 49.3 µM | [15] > 100 µM | [16] 38.2 µM | [17] 68.5 µM | [18] 20 µM

C=C(C)C1Cc2c(cc(OC)c3c(=O)c4cccc(O)c4oc23)O1 (centres undefined)
inactive: [19] 25.2 µM | [1] 24.8 µM | [20] 25.6 µM | [2] 23.9 µM | [3] 21.2 µM | [5] 38.2 µM | [6] 33 µM | [7] 34.1 µM | [8] 17.9 µM | [9] 72.9 µM | [10] 45.8 µM | [11] 20 µM | [13] 18.6 µM | [14] 46.5 µM | [15] 18.9 µM | [16] 74.6 µM | [17] 16.6 µM | [18] 16.6 µM

COc1ccc(C2C3CCc4ccccc4C3=NN2S(=O)(=O)c2cccc(C(=O)O)c2OC)cc1 (centres undefined)
inactive: [19] 13.3 µM | [1] 2.81 µM | [2] 10.4 µM | [3] 19.8 µM | [5] 9.02 µM | [8] 33.3 µM | [9] 92.9 µM | [10] 27.7 µM | [11] 2.52 µM | [12] 9.55 µM | [13] 15.7 µM | [14] 2.48 µM | [15] 11.2 µM | [16] 10.4 µM | [17] 22.5 µM | [18] 3.19 µM

O=C1CCCC2=C1CC1=C(CCCC1=O)N2c1cccc([N+](=O)[O-])c1
inactive: [1] > 100 µM | [20] > 100 µM | [3] > 100 µM | [4] > 100 µM | [5] > 100 µM | [7] > 100 µM | [8] > 100 µM | [9] > 100 µM | [12] > 100 µM | [14] > 100 µM | [15] > 100 µM | [16] > 100 µM | [17] > 100 µM

Cn1c(=O)cc(N2CCCC2)[nH]c1=O
inactive: [19] > 100 µM | [1] > 100 µM | [2] > 100 µM | [3] > 100 µM | [5] > 100 µM | [6] > 100 µM | [7] > 100 µM | [8] > 100 µM | [9] > 100 µM | [10] > 100 µM | [12] > 100 µM | [13] > 100 µM | [14] > 100 µM | [15] > 100 µM | [16] > 100 µM | [17] > 100 µM | [18] > 100 µM

CCC(CN(C)C)C(=O)c1ccco1 (centres undefined)
inactive: [19] 41.4 µM | [1] > 100 µM | [20] 98.6 µM | [2] > 100 µM | [4] > 100 µM | [5] > 100 µM | [6] > 100 µM | [7] > 100 µM | [8] > 100 µM | [9] > 100 µM | [10] > 100 µM | [12] 68.5 µM | [13] > 100 µM | [14] > 100 µM | [15] > 100 µM | [17] > 100 µM | [18] 14.5 µM

CCC(C)[C@H](NC(=O)N[C@H](C)c1ccccc1)C(=O)OC (some centres undefined)
inactive: [2] > 100 µM | [3] > 100 µM | [4] > 100 µM | [5] > 100 µM | [6] > 100 µM | [7] > 100 µM | [8] > 100 µM | [9] > 100 µM | [10] > 100 µM | [11] > 100 µM | [12] > 100 µM | [13] > 100 µM | [14] > 100 µM | [15] > 100 µM | [16] > 100 µM | [17] > 100 µM

Cn1cc(S(=O)(=O)NC(=O)Nc2ccc(Cl)cc2)c(=O)c2ccc(F)cc21
inactive: [19] > 100 µM | [1] > 100 µM | [20] > 100 µM | [2] > 100 µM | [3] > 100 µM | [4] > 100 µM | [5] > 100 µM | [6] > 100 µM | [7] > 100 µM | [9] > 100 µM | [10] > 100 µM | [11] 64.3 µM | [12] > 100 µM | [13] > 100 µM | [14] 47.6 µM | [15] > 100 µM | [16] > 100 µM | [17] > 100 µM | [18] 32 µM
